Data reported in patent publication US4492693A, “Benzothienylglycyl cephalosporin derivatives” (priority 1983, dated 1985).
Where two headings read alike, the source gives them in different places.

Columns and labels:
Format in all cases: cell-based
[1] = test system: E. coli; test: Agar Dilution MIC (Table I); conditions: Escherichia coli
[2] = test system: Strep. A; test: Agar Dilution MIC (Table I); conditions: strain C203; read-out: Agar Dilution MIC
[3] = test system: Staph. aureus; test: Expanded Spectrum MIC (Table II); conditions: Staphylococcus aureus
Text: (§1) A typical and preferred compound provided by this invention is 7-(3-benzothienyl)glycylamido-3-methyl-3-cephem-4-carboxylic acid, the compound illustrated in Example 9. The antibacterial activity of this compound has been determined in standard in vitro agar dilution assays against a variety of gram positive and gram negative microorganism. The following Tables present typical minimum inhibitory concentrations (MIC's) in μg/ml for several compounds of the invention when evaluated against the indicated microorganisms. MIC's for several known compounds are also presented for comparison.
(§2) Expanded Spectrum MIC (μg/ml)

[4] = test system: H. influenzae; test: Expanded Spectrum MIC (Table II); conditions: Haemophilus influenzae
Text: as §1, §2

[5] = test system: H. influ.; test: Agar Dilution MIC (Table I); conditions: read-out: Agar Dilution MIC
[6] = test system: Strep. PN; test: Agar Dilution MIC (Table I); conditions: strain PARK
[7] = test system: Strep. D; test: Agar Dilution MIC (Table I); conditions: read-out: Agar Dilution MIC
Text: as §1
Agar Dilution MIC (μg/ml)

[8] = test system: Bacteroides thetaiotaomicron; test: Susceptibility of Anaerobic Bacteroides Isolates by the Agar-Dilution Method (Table III); conditions: 24 h
Text: as §1
(§3) Susceptibility of Anaerobic Bacteroides Isolates by the
(§4) Agar-Dilution Method MIC (μg/ml) readings 24 hrs. after incubation

[9] = test system: Bacteroides corrodens; test: as above; conditions: Eikenella corrodens; strain 1874; readings 24 hrs. after incubation
Text: as §1, §3, §4

[10] = test system: Bacteroides fragilis; test: as above; conditions: 24 h
Text: as §1, §3, §4

[11] = test system: Klebsiella; test: Agar Dilution MIC (Table I); conditions: Klebsiella, read-out: Agar Dilution MIC
[12] = test system: Staph. epi; test: Expanded Spectrum MIC (Table II)
Text: as §1, §2

[13] = test system: Staph. epi; test: Agar Dilution MIC (Table I); conditions: read-out: Agar Dilution MIC
[14] = test system: Staph. aureus; test: Agar Dilution MIC (Table I); conditions: Staphylococcus aureus, read-out: Agar Dilution MIC
[15] = strain 1438, readings 24 hrs. after incubation
[16] = strain 1900A, readings 24 hrs. after incubation
[17] = strain 9, readings 24 hrs. after incubation
[18] = strain 103, readings 24 hrs. after incubation
[19] = strain 104, readings 24 hrs. after incubation
[20] = strain 106, readings 24 hrs. after incubation
[21] = strain 107, readings 24 hrs. after incubation
[22] = strain 108, readings 24 hrs. after incubation
[23] = strain 110, readings 24 hrs. after incubation
[24] = strain 111, readings 24 hrs. after incubation
[25] = strain 1877, readings 24 hrs. after incubation

Measured: MIC

CC1=C(C(=O)O)N2C(=O)C(NC(=O)[C@H](N)c3csc4cccc(F)c34)C2SC1 (stereo partly drawn) [Ex. 19, D-7-(4-Fluoro-3-benzothienyl)glycylamido-3-methyl-3-cephem-4-carboxylic acid]
128 µg/mL: [1]; strain EC14 | [1]; strain N10 | [1]; strain TEM | [7]; strain 2041 | [7]; strain X66 | [11]; strain KAE | [11]; strain X68
2 µg/mL: [3]; strain S231 | [4]; strain 1683
64 µg/mL: [4]; strain M366 | [4]; strain R465 | [4]; strain STEL | [10]; [24]
32 µg/mL: [8]; [16] | [9] | [10]; [18]
1 µg/mL: [2]
4 µg/mL: [3]; strain S224 | [3]; strain S225 | [3]; strain S226 | [3]; strain S227 | [3]; strain S228 | [3]; strain S230 | [3]; strain S234 | [3]; strain S237 | [4]; strain 76 | [4]; strain 105 | [4]; strain 158 | [4]; strain 164 | [4]; strain 169 | [4]; strain 171 | [4]; strain M370 | [4]; strain M371 | [5]; strain 76 | [6]
8 µg/mL: [3]; strain S229 | [3]; strain S238 | [3]; strain S239 | [4]; strain 312 | [4]; strain 4842 | [10]; [17] | [10]; [20] | [10]; [21] | [10]; [23] | [10]; [25]
16 µg/mL: [4]; strain 1930 | [4]; strain C.L. | [4]; strain HESS | [5]; strain C.L. | [8]; [15] | [10]; [19] | [10]; [22] | [11]; strain X26

CON=C(C(=O)NC1C(=O)N2C(C(=O)O)=C(C)CSC12)c1csc2cc(OC)ccc12 (stereo not drawn) [Ex. 22]
4 µg/mL: [3]; strain S229 | [3]; strain S238 | [4]; strain C.L. | [4]; strain HESS | [12]; strain 269 | [12]; strain 285 | [13]; strain 222
8 µg/mL: [12]; strain 270 | [5]; strain C.L. | [13]; strain EPI1 | [14]; strain V41
1 µg/mL: [3]; strain S231 | [4]; strain 76 | [4]; strain 158 | [4]; strain 164 | [4]; strain 312 | [4]; strain 1930 | [4]; strain 4842 | [4]; strain M370 | [12]; strain 286 | [14]; strain X1.1 | [11]; strain X26
0.5 µg/mL: [2] | [4]; strain 1683 | [6]
128 µg/mL: [1]; strain N10 | [1]; strain TEM | [11]; strain KAE | [11]; strain X68
2 µg/mL: [3]; strain S224 | [3]; strain S225 | [3]; strain S226 | [3]; strain S227 | [3]; strain S228 | [3]; strain S230 | [3]; strain S234 | [3]; strain S237 | [3]; strain S239 | [4]; strain 105 | [4]; strain 169 | [4]; strain 171 | [4]; strain M371 | [4]; strain R465 | [12]; strain 219 | [5]; strain 76
64 µg/mL: [1]; strain EC14 | [4]; strain M366 | [4]; strain STEL | [14]; strain X400 | [7]; strain 2041 | [7]; strain X66
16 µg/mL: [12]; strain EPI1

CO[C@@]1(NC(=O)C(C(=O)O)c2ccc(O)cc2)C(=O)N2C(C(=O)O)=C(CSc3nnnn3C)CO[C@@H]21 (stereo partly drawn) [moxalactam, reference compound]
8 µg/mL: [9] | [10]; [24]
4 µg/mL: [10]; [18]
0.5 µg/mL: [10]; [17] | [10]; [19] | [10]; [22] | [10]; [23]
64 µg/mL: [8]; [16]
1 µg/mL: [10]; [20] | [10]; [21]
2 µg/mL: [8]; [15] | [10]; [25]
